According to patent publication US12233128B2, “Degraders that target ALK and therapeutic uses thereof” (DANA-FARBER CANCER INSTITUTE, INC., priority 2018, dated 2025):
Values belong to the compound of their own block, whether it stands above or below them.

Key:
Type in all cases: cell-based
H3122 cells = experiment: CellTiter-Glo cell viability, anti-proliferative activity in H3122 cells; conditions: 72 hours, FIG. 1A
Description: (§1) CellTiter-Glo®: Cell viability was evaluated using the CellTiter-Glo® Luminescent Cell Viability Assay (Promega™) following the manufacturer's standards. 12-point dose titrations were tested in triplicate from 10000 nM to 0.056 nM over 72 hours. Anti-proliferative best fit EC50 values with 95% CI are shown as calculated by Graphpad Prism™ 7 software.

[1] = tested on: EML4-ALK with secondary mutations L1196M, C1156Y, or G1202R; experiment: CellTiter-Glo cell viability, ALK-positive Ba/F3 cells with EML4-ALK secondary mutations; conditions: 72 hours, FIG. 1A
Description: as §1

ALK = biological target: T1, ALK (Homo sapiens, UniProt Q9UM73); experiment: Western blot, degradation of ALK in H3122 cells; conditions: for degradation of ALK: 16-hour treatment, 0.01-1 μM
T1 construct: EML4 N-terminal fusion partner (human entry Q9HC35); endogenous in cells; host or cells: H3122; the other entry of the earlier key: EML4 (Q9HC35, Echinoderm microtubule-associated protein-like 4)
T1 sequence (Q9UM73 with tags, fused parts or gaps): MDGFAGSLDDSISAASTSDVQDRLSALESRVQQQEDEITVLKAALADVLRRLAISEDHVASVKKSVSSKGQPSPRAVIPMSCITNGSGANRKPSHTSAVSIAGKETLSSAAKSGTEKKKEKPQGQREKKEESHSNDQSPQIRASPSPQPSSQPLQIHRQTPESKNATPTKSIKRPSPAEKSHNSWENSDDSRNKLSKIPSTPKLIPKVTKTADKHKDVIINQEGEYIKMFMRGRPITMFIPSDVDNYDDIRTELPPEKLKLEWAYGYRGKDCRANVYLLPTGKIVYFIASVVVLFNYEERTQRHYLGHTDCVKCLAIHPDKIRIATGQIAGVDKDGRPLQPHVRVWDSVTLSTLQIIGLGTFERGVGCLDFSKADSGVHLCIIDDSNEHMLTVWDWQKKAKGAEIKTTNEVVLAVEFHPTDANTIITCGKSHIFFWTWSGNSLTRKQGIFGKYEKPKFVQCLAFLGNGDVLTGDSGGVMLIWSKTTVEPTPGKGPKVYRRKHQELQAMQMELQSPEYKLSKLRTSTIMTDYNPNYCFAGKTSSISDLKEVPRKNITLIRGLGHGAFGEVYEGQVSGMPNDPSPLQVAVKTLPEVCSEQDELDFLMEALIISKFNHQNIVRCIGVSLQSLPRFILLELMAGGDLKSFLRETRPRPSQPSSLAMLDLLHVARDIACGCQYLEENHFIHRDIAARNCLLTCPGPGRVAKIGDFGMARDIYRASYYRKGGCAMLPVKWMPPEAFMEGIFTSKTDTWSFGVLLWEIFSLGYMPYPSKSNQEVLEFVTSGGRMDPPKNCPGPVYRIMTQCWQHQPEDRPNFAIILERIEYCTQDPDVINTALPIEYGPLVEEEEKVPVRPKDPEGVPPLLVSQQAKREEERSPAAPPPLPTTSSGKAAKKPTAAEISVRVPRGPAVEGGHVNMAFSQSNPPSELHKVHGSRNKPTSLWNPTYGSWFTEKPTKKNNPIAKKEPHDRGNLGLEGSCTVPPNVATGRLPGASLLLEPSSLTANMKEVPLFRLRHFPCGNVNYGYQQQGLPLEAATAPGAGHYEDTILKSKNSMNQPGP
Description: (§2) Blotting: Cells were washed with PBS before being lysed with Cell Lysis Buffer (Cell Signaling Technology®) supplemented with protease and phosphatase inhibitor cocktails (Roche™) at 4° C. for 15 minutes. The cell lysate was vortexed every 5 minutes over a 30-minute period before being centrifuged at 14,000×g for 20 min at 4° C. Protein in cell lysate was quantified by BCA assay (Pierce™). Primary antibodies used in this study include ALK (Cell Signaling Technology®, D5F3), Aurora A (Cell Signaling Technology®, 1F8), FAK (PTK2) (Cell Signaling Technology®, #3285), and GAPDH (Cell Signaling Technology®, 14C10). Blot quantification was performed using Image Studio™ 4.0 software, normalizing to loading control (GAPDH).

Aurora A = biological target: T2, Aurora A (Homo sapiens, UniProt O14965); experiment: Western blot, off target degradation of Aurora A in H3122 cells; conditions: 16-hour treatment, 0.01-1 μM
T2 construct: ALK and aurora A degradation in H3122 cells; endogenous in cells; host or cells: H3122
T2 sequence (O14965 1-403): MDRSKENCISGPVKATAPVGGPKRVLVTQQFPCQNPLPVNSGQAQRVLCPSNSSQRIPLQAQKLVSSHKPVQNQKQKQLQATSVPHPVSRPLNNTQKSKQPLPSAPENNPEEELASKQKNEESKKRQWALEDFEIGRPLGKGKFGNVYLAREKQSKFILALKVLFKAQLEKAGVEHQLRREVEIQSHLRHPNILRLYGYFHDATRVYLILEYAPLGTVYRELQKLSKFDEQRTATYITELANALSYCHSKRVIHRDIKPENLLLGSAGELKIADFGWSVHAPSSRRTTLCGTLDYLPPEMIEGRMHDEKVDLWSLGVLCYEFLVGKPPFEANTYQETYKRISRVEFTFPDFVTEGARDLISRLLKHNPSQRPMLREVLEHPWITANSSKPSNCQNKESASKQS
Description: as §2

FAK (PTK2) = biological target: T3, FAK (PTK2) (Homo sapiens, UniProt Q05397); experiment: Western blot, off target degradation of PTK2 in H3122 cells
T3 construct: endogenous in cells; host or cells: H3122
T3 sequence (Q05397 whole entry): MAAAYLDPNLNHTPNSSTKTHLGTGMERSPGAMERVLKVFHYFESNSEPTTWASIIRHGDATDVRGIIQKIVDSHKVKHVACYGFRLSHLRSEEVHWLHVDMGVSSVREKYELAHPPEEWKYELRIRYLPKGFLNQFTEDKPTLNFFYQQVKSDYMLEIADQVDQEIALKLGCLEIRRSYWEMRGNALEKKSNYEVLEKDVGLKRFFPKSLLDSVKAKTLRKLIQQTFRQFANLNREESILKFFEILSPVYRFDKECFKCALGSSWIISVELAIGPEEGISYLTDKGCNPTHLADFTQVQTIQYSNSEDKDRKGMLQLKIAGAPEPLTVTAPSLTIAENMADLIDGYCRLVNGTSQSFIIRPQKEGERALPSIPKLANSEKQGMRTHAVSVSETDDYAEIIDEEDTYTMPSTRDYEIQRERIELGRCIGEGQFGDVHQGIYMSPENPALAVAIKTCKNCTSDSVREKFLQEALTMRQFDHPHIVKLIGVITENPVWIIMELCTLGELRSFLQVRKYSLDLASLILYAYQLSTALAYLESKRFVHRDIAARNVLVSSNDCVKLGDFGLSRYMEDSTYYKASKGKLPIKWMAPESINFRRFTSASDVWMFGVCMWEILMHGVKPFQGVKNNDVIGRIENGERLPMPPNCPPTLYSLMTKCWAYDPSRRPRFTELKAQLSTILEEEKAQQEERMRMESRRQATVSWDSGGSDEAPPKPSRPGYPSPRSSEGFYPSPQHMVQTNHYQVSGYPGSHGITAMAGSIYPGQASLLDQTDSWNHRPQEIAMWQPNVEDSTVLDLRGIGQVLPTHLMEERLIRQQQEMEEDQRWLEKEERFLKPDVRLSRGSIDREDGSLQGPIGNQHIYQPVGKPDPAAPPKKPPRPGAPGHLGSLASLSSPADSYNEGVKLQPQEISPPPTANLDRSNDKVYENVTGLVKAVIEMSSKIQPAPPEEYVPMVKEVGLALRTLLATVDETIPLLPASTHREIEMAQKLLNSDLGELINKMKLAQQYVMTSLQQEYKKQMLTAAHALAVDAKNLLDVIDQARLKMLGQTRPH
Description: as §2

[2] = tested on: EML4-ALK expressing cell lines; experiment: CellTiter-Glo cell viability, EML4-ALK expressing cell lines; conditions: 72 hours, FIG. 2A / 3A
Description: as §1
The experimental protocol was as in Example 15.

SMILES: CCc1cc2c(cc1N1CCC(N3CCN(C(=O)CCOCCOCCOCCOCCNc4cccc5c4C(=O)N(C4CCC(=O)NC4=O)C5=O)CC3)CC1)C(C)(C)c1[nH]c3cc(C#N)ccc3c1C2=O (stereo not shown) [Compound 1, 8-(4-(4-(1-((2-(2,6-dioxopiperidin-3-yl)-1,3-dioxoisoindolin-4-yl)amino)-3,6,9,12-tetraoxapentadecan-15-oyl)piperazin-1-yl)piperidin-1-yl)-9-ethyl-6,6-dimethyl-11-oxo-6,11-dihydro-5H-benzo[b]carbazole-3-carbonitrile]
anti-proliferative activity in H3122 cells (H3122 cells): comparable to compound 12 | activity against EML4-ALK with secondary mutations L1196M, C1156Y, or G1202R [1]: comparable to the parental inhibitor alectinib | degradation of ALK (ALK): ability to degrade ALK in a dose dependent manner | off target degradation of Aurora A (Aurora A): Off target degradation of Aurora A was also seen | off target degradation of PTK2 (FAK (PTK2); 16-hour treatment, 0.01-1 μM): very low

SMILES: CCc1cc2c(cc1-c1cnn(CC(=O)NCCOCCOCCOCCOCCOCCOCCNc3cccc4c3C(=O)N(C3CCC(=O)NC3=O)C4=O)c1)C(C)(C)c1[nH]c3cc(C#N)ccc3c1C2=O (stereo not shown) [Compound 5, 2-(4-(3-cyano-9-ethyl-6,6-dimethyl-11-oxo-6,11-dihydro-5H-benzo[b]carbazol-8-yl)-1H-pyrazol-1-yl)-N-(20-((2-(2,6-dioxopiperidin-3-yl)-1,3-dioxoisoindolin-4-yl)amino)-3,6,9,12,15,18-hexaoxaicosyl)acetamide]
anti-proliferative activity in EML4-ALK expressing cell lines [2]: slightly better activity than the other members of this group | degradation of ALK (ALK): significant degradation of ALK

SMILES: CCc1cc2c(cc1N1CCC(N3CCN(C(=O)CCOCCOCCNc4cccc5c4C(=O)N(C4CCC(=O)NC4=O)C5=O)CC3)CC1)C(C)(C)c1[nH]c3cc(C#N)ccc3c1C2=O (stereo not shown) [Compound 2, 8-(4-(4-(3-(2-(2-((2-(2,6-dioxopiperidin-3-yl)-1,3-dioxoisoindolin-4-yl)amino)ethoxy)ethoxy)propanol)piperazin-1-yl)piperidin-1-yl)-9-ethyl-6,6-dimethyl-11-oxo-6,11-dihydro-5H-benzo[b]carbazole-3-carbonitrile]
anti-proliferative activity in H3122 cells (H3122 cells): comparable to compound 12 | activity against EML4-ALK with secondary mutations L1196M, C1156Y, or G1202R [1]: comparable to the parental inhibitor alectinib | degradation of ALK (ALK): ability to degrade ALK in a dose dependent manner | off target degradation of Aurora A (Aurora A): Off target degradation of Aurora A was also seen | off target degradation of PTK2 (FAK (PTK2); 16-hour treatment, 0.01-1 μM): very low

SMILES: CCc1cc2c(cc1-c1cnn(CC(=O)NCCOCCOCCOCCOCCNc3cccc4c3C(=O)N(C3CCC(=O)NC3=O)C4=O)c1)C(C)(C)c1[nH]c3cc(C#N)ccc3c1C2=O (stereo not shown) [Compound 6, 2-(4-(3-cyano-9-ethyl-6,6-dimethyl-11-oxo-6,11-dihydro-5H-benzo[b]carbazol-8-yl)-1H-pyrazol-1-yl)-N-(14-((2-(2,6-dioxopiperidin-3-yl)-1,3-dioxoisoindolin-4-yl)amino)-3,6,9,12-tetraoxatetradecyl)acetamide]
degradation of ALK (ALK): did not degrade ALK to a significant extent

SMILES: CCc1cc2c(cc1-c1cnn(CC(=O)NCCOCCOCCNc3cccc4c3C(=O)N(C3CCC(=O)NC3=O)C4=O)c1)C(C)(C)c1[nH]c3cc(C#N)ccc3c1C2=O (stereo not shown) [Compound 4, 2-(4-(3-cyano-9-ethyl-6,6-dimethyl-11-oxo-6,11-dihydro-5H-benzo[b]carbazol-8-yl)-1H-pyrazol-1-yl)-N-(2-(2-(2-((2-(2,6-dioxopiperidin-3-yl)-1,3-dioxoisoindolin-4-yl)amino)ethoxy)ethoxy)ethyl)acetamide]
degradation of ALK (ALK): did not degrade ALK to a significant extent

Now from value to compound, other results behind:

time at which ALK degradation is seen (ALK; time course, 100 nM): around 4 hours | time of maximum ALK degradation (ALK; time course, 100 nM): around 8 hours
SMILES: Cc1cc(Nc2ncc(Cl)c(Nc3ccccc3S(=O)(=O)C(C)C)n2)c(OC(C)C)cc1C1CCN(CCOCCOCCNC(=O)CNc2cccc3c2C(=O)N(C2CCC(=O)NC2=O)C3=O)CC1 (stereo not shown) [Compound 12, N-(2-(2-(2-(4-(4-((5-Chloro-4-((2-(isopropylsulfonyl)phenyl)-amino)pyrimidin-2-yl)amino)-5-isopropoxy-2-methylphenyl)-piperidin-1yl)ethoxy)ethoxy)ethyl)-2-((2-(2,6-dioxopiperidin-3-yl)-1,3-dioxoisoindolin-4-yl)amino)acetamide]
off target degradation of PTK2 (FAK (PTK2); time course, 100 nM): off target degradation activity against PTK2 that was seen

degradation of PTK2 (FAK (PTK2); 16-hour treatment, 1 μM): slight degradation of PTK2
SMILES: CCc1cc2c(cc1-c1cnn(CC(=O)N(C)CCOCCOCCOCCNc3cccc4c3C(=O)N(C3CCC(=O)NC3=O)C4=O)c1)C(C)(C)c1[nH]c3cc(C#N)ccc3c1C2=O (stereo not shown) [Compound 8, 2-(4-(3-cyano-9-ethyl-6,6-dimethyl-11-oxo-6,11-dihydro-5H-benzo[b]carbazol-8-yl)-1H-pyrazol-1-yl)-N-(2-(2-(2-(2-((2-(2,6-dioxopiperidin-3-yl)-1,3-dioxoisoindolin-4-yl)amino)ethoxy)ethoxy)ethoxy)ethyl)-N-methylacetamide]
off target degradation of Aurora A (Aurora A): off target degradation of aurora A was still seen at higher doses
